Measurements taken from patent US20160113940A1, “METHODS OF TREATING BIOFILMS” (BIOMIMETIX J.V., LLC, priority 2013, published 2016).

Legend:
[1] = test system: Biofilm forming Staphylococcus Aureus
Protocol: A total of 20 C57B5 male mice were randomly divided into four treatment groups after surgery to create an infected femur fracture (midshaft femur fracture fixed with intramedullary 23 g needle and with 10^4 S. aureus added to the fracture site):
2. Antibiotic (Keflex) starting 24 hours post-surgery,
3. SOD mimetic MnTE-2-PyP (starting 24 hours post-surgery,
4. Antibiotic plus MnTE-2-PyP (starting 24 hours post-surgery).
The mice were followed for 2 weeks and received daily access to Keflex in drinking water at […] dose for the antibiotic treated groups and MnTE three time per week (loading dose day 1=5.0 mg/kg SQ, followed by 2.5 mg/kg SQ three times weekly). […] Mice were harvested after 2 weeks and femurs were homogenized in PBS, supernatants were serially diluted and plated to determine cell counts.

[2] = test system: Biofilm forming S. aureus; experiment: Inhibition of Staphylococcus aureus biofilm formation in vitro (96 well plates, absorbance at 600 nm); assay type: cell-based; conditions: established 24 h biofilm, 24 hours further growth after treatment, vs PBS; p<0.0001; FIG. 1
Protocol: Biofilm forming S. aureus was grown in 96 well plates for 24 hours to allow a biofilm to form. Wells were allowed to grow an additional 24 hours after being treated with either PBS or SOD mimetic (Mn (III) tetrakis (N-ethylpyridinium-2-yl) porphyrin, or “MnTE-PyP”). Biofilm intensity was measured using absorbance at 600 nm. […] (p<0.0001)

CC1=C(C(=O)O)N2C(=O)[C@@H](NC(=O)[C@H](N)c3ccccc3)[C@H]2SC1 [Keflex, reference compound]
Fracture healing compared to no treatment ([1]; infected femur fracture, 2 wks, FIG. 3): significantly improved fracture healing

CC[n+]1ccccc1-c1c2nc(c(-c3cccc[n+]3CC)c3ccc([n-]3)c(-c3cccc[n+]3CC)c3nc(c(-c4cccc[n+]4CC)c4ccc1[n-]4)C=C3)C=C2.[Mn+3] [MnTE-2-PyP, Mn (III) tetrakis (N-ethylpyridinium-2-yl) porphyrin]
Biofilm intensity (absorbance at 600 nm) [2]: disrupts established S. aureus biofilms in culture | Mortality ([1]; initial post-operative period, mimetic only group, not felt to be related to the compound): one mouse died
